Measurements: ChEMBL document CHEMBL5291721, “A preclinical secondary pharmacology resource illuminates target-adverse drug reaction associations of marketed drugs” (Nat Commun, 2023)

Biological target: T1, Muscarinic acetylcholine receptor M4 (Homo sapiens, UniProt P08173)
T1 sequence (P08173 whole entry): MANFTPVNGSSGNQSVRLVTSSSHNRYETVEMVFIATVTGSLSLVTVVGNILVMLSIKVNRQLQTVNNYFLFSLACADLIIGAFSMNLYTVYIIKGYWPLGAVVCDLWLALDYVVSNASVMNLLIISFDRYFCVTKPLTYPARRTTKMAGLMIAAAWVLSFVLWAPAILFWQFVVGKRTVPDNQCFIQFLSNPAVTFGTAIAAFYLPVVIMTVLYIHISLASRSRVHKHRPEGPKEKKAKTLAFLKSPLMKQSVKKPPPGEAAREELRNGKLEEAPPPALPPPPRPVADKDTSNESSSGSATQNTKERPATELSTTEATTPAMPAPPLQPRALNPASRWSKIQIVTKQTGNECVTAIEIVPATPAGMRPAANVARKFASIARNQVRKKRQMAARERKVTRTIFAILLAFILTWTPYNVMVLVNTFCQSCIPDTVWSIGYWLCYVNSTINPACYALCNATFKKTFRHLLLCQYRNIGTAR
Also: assay procedure not described here.

SMILES: CCOC(=O)[C@H](CCc1ccccc1)N[C@@H](C)C(=O)N1Cc2ccccc2C[C@H]1C(=O)O
- AC50: > 10 µM
